What follows are compounds tested against T1, human TLR8 (Homo sapiens, UniProt Q9NR97) (assay: HEK293-Blue-hTLR-8 cells assay (SEAP reporter, R848 stimulation)). Conditions: HEK293-Blue-hTLR8 cells, R848 ligand, 20 hrs incubation.
T1 sequence (Q9NR97 27-1041): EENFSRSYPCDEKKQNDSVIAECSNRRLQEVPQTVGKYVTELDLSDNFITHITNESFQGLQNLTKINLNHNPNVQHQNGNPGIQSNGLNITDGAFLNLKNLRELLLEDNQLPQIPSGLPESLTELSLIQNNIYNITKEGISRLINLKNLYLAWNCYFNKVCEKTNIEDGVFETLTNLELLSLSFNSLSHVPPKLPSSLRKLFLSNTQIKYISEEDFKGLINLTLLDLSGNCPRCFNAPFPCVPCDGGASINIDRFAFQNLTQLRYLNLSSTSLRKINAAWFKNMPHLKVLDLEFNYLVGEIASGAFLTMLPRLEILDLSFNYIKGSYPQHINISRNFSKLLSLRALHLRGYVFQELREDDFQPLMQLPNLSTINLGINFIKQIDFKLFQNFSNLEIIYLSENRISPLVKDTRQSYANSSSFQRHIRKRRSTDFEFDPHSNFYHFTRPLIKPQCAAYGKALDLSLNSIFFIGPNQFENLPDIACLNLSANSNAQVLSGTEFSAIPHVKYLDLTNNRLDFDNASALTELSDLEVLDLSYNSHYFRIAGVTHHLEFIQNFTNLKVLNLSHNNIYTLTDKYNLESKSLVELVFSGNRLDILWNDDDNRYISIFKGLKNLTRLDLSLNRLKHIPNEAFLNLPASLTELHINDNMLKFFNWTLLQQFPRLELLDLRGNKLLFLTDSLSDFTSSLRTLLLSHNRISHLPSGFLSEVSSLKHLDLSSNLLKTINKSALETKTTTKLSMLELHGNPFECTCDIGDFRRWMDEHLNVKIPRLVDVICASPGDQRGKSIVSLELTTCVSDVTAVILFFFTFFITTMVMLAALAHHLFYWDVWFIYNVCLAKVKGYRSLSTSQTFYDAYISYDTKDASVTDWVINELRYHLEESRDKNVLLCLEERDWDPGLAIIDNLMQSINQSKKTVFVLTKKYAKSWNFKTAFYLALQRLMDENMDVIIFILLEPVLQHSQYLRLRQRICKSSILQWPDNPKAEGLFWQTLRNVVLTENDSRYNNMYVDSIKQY
Format: cell-based
Procedure: The following tests were carried out in order to determine the activity of the compounds of formula (I) in HEK293-Blue-hTLR-7/8/9 cells assay.
HEK293-Blue-hTLR-8 Cells Assay:
A stable HEK293-Blue-hTLR-8 cell line was purchased from InvivoGen (Cat. #: hkb-htlr8, San Diego, Calif., USA). These cells were originally designed for studying the stimulation of human TLR8 by monitoring the activation of NF-κB. A SEAP (secreted embryonic alkaline phosphatase) reporter gene was placed under the control of the IFN-β minimal promoter fused to five NF-κB and AP-1-binding sites. The SEAP was induced by activating NF-κB and AP-1 via stimulating HEK-Blue hTLR8 cells with TLR8 ligands. Therefore the reporter expression was declined by TLR8 antagonist under the stimulation of a ligand, such as R848, for incubation of 20 hrs. The cell culture supernatant SEAP reporter activity was determined using QUANTI-Blue™ kit (Cat. #: rep-qb1, Invivogen, San Diego, Ca, USA) at a wavelength of 640 nm, a detection medium that turns purple or blue in the presence of alkaline phosphatase.
HEK293-Blue-hTLR8 cells were incubated at a density of 250,000˜450,000 cells/mL in a volume of 170 μL in a 96-well plate in Dulbecco's Modified Eagle's medium (DMEM) containing 4.5 g/L glucose, 50 U/mL penicillin, […], […], 2 mM L-glutamine, 10% (v/v) heat-inactivated fetal bovine serum with addition of 20 μL test compound in a serial dilution in the presence of final DMSO at 1% and 10 μL of 60 uM R848 in above DMEM, perform incubation under 37° C. in a CO2 incubator for 20 hrs. Then 20 μL of the supernatant from each well was incubated with 180 μL Quanti-blue substrate solution at 37° C. for 2 hrs and the absorbance was read at 620-655 nm using a spectrophotometer. The signalling pathway that TLR8 activation leads to downstream NF-κB activation has been widely accepted, and therefore similar reporter assay was modified for evaluating TLR8 antagonist.

Row | Structure (SMILES) | IC50 [nM]
1 | N#Cc1ccc(N2CC(CN3CCC4(CC3)CNCCO4)C3(CC3)C2)c2nccnc12 (stereo not drawn) [Example 49, 8-[7-(1-Oxa-4,9-diazaspiro[5.5]undecan-9-ylmethyl)-5-azaspiro[2.4]heptan-5-yl]quinoxaline-5-carbonitrile] | 24
2 | N#Cc1ccc(N2C[C@H](CN3CCC4(CCNCC4)CC3)[C@@H](C(F)(F)F)C2)c2cccnc12 [Example 2, 5-[(3S,4R)-3-(3,9-diazaspiro[5.5]undecan-3-ylmethyl)-4-(trifluoromethyl)pyrrolidin-1-yl]quinoline-8-carbonitrile] | 57
3 | C[C@H]1CN(C[C@H]2CN(c3ccc(C#N)c4nccnc34)C[C@@H]2C(F)(F)F)CC[C@H]1N [Example 72, 8-[(3S,4R)-3-[[(3S,4R)-4-amino-3-methyl-1-piperidyl]methyl]-4-(trifluoromethyl)pyrrolidin-1-yl]quinoxaline-5-carbonitrile] | 23
4 | CC1(CN)CCCN(C[C@H]2CN(c3ccc(C#N)c4nccnc34)C[C@@H]2C(F)(F)F)C1 (stereo partly drawn) [Example 75, 8-[(3S,4R)-3-[[3-(aminomethyl)-3-methyl-1-piperidyl]methyl]-4-(trifluoromethyl)pyrrolidin-1-yl]quinoxaline-5-carbonitrile] | 31
5 | N#Cc1ccc(N2CC(CNC3CCCNCC3)C3(CC3)C2)c2nccnc12 (stereo not drawn) [Example 39, 8-[7-[(Azepan-4-ylamino)methyl]-5-azaspiro[2.4]heptan-5-yl]quinoxaline-5-carbonitrile] | 132
6 | CC(C)[C@@H]1CN(c2ccc(C#N)c3ncccc23)C[C@H]1CN1CCC2(CCNC2)C1 (relative stereo) [Example 44, 5-[Trans-3-(2,7-diazaspiro[4.4]nonan-2-ylmethyl)-4-isopropyl-pyrrolidin-1-yl]quinoline-8-carbonitrile] | 533
7 | CC1(N)CCN(C[C@H]2CN(c3ccc(C#N)c4nccnc34)C[C@@H]2C(F)(F)F)CC1 [Example 12, 8-[(3S,4R)-3-[(4-amino-4-methyl-1-piperidyl)methyl]-4-(trifluoromethyl)pyrrolidin-1-yl]quinoxaline-5-carbonitrile] | 31
8 | FC(F)(F)c1ccc(N2CC(CN3CCNCC3)C3(CC3)C2)c2nccnc12 (stereo not drawn) [Example 20, 5-[7-(Piperazin-1-ylmethyl)-5-azaspiro[2.4]heptan-5-yl]-8-(trifluoromethyl)quinoxaline] | 68
9 | C[C@H]1CN(c2ccc(C#N)c3ncccc23)C[C@@H]1CN1CCC2(CCNCC2)CC1 [Example 23, 5-[(3S,4R)-3-(3,9-diazaspiro[5.5]undecan-3-ylmethyl)-4-methyl-pyrrolidin-1-yl]quinoline-8-carbonitrile] | 266
10 | N#Cc1ccc(N2CC(CN3CCC4NCC4C3)C3(CC3)C2)c2nccnc12 (stereo not drawn) [Example 66, 8-[7-(3,7-Diazabicyclo[4.2.0]octan-3-ylmethyl)-5-azaspiro[2.4]heptan-5-yl]quinoxaline-5-carbonitrile] | 82
11 | C[C@@H]1CN(c2ccc(C(F)(F)F)c3nccnc23)C[C@H]1CN1CCC2(CCNCC2)CC1 (relative stereo) [Example 21, 3-[[Trans-4-methyl-1-[8-(trifluoromethyl)quinoxalin-5-yl]pyrrolidin-3-yl]methyl]-3,9-diazaspiro[5.5]undecane] | 351
12 | N#Cc1ccc(N2C[C@H](CN3CCC4(CCNC4)C3)[C@@H](C(F)(F)F)C2)c2nccnc12 (stereo partly drawn) [Example 5, 8-[(3S,4R)-3-(2,7-diazaspiro[4.4]nonan-2-ylmethyl)-4-(trifluoromethyl)pyrrolidin-1-yl]quinoxaline-5-carbonitrile] | 35
13 | N#Cc1ccc(N2C[C@@H](CN3CCC4(CCNCC4)CC3)[C@H](C3CC3)C2)c2cccnc12 (relative stereo) [Example 28, 5-[Trans-3-cyclopropyl-4-(3,9-diazaspiro[5.5]undecan-3-ylmethyl)pyrrolidin-1-yl]quinoline-8-carbonitrile] | 948
14 | N#Cc1ccc(N2C[C@H](CN3CCC4(CCCNC4)CC3)[C@@H](C(F)(F)F)C2)c2cccnc12 [Example 55, 5-[(3S,4R)-3-(2,9-Diazaspiro[5.5]undecan-9-ylmethyl)-4-(trifluoromethyl)pyrrolidin-1-yl]quinoline-8-carbonitrile] | 42
15 | N#Cc1ccc(N2C[C@H](CN3CC4(CC(N)C4)C3)[C@@H](C(F)(F)F)C2)c2cccnc12 [Example 53, 5-[(3S,4R)-3-[(6-Amino-2-azaspiro[3.3]heptan-2-yl)methyl]-4-(trifluoromethyl)pyrrolidin-1-yl]quinoline-8-carbonitrile] | 146
16 | N#Cc1ccc(N2CC(CN3CCC4(CCCCN4)CC3)C3(CC3)C2)c2nccnc12 (stereo not drawn) [Example 65, 8-[7-(1,9-Diazaspiro[5.5]undecan-9-ylmethyl)-5-azaspiro[2.4]heptan-5-yl]quinoxaline-5-carbonitrile] | 92
17 | N#Cc1ccc(N2C[C@H](CN3CCC(CCN)CC3)[C@@H](C(F)(F)F)C2)c2nccnc12 [Example 79, 8-[(3S,4R)-3-[[4-(2-aminoethyl)-1-piperidyl]methyl]-4-(trifluoromethyl)pyrrolidin-1-yl]quinoxaline-5-carbonitrile] | 102
18 | N#Cc1ccc(N2C[C@H](CN3CCC4(CCNCC4)CC3)[C@@H](C(F)(F)F)C2)c2nccnc12 [Example 1, 8-[(3S,4R)-3-(3,9-diazaspiro[5.5]undecan-3-ylmethyl)-4-(trifluoromethyl)pyrrolidin-1-yl]quinoxaline-5-carbonitrile] | 20
19 | N#Cc1ccc(N2C[C@H](CN3CCC4(CCNC4)CC3)[C@@H](C(F)(F)F)C2)c2nccnc12 [Example 14, 8-[(3S,4R)-3-(2,8-Diazaspiro[4.5]decan-8-ylmethyl)-4-(trifluoromethyl)pyrrolidin-1-yl]quinoxaline-5-carbonitrile] | 19
20 | N#Cc1ccc(N2C[C@H](CN3CCC4(CCNCC4)C3)[C@@H](C(F)(F)F)C2)c2cccnc12 [Example 56, 5-[(3S,4R)-3-(2,8-Diazaspiro[4.5]decan-2-ylmethyl)-4-(trifluoromethyl)pyrrolidin-1-yl]quinoline-8-carbonitrile] | 62
21 | N#Cc1ccc(N2CCC(CN3CCC4(CCNCC4)CC3)C2)c2nccnc12 (stereo not drawn) [Example 37, 8-[3-(3,9-Diazaspiro[5.5]undecan-3-ylmethyl)pyrrolidin-1-yl]quinoxaline-5-carbonitrile] | 531
22 | N#Cc1ccc(N2CC(CN3CCC4(CCNCC4)C3)C3(CC3)C2)c2nccnc12 (stereo not drawn) [Example 32, 8-[7-(2,8-Diazaspiro[4.5]decan-2-ylmethyl)-5-azaspiro[2.4]heptan-5-yl]quinoxaline-5-carbonitrile] | 111
23 | N#Cc1ccc(N2C[C@H](CN3CC4(CCNCC4)C3)[C@@H](C(F)(F)F)C2)c2nccnc12 [Example 48, 8-[(3S,4R)-3-(2,7-diazaspiro[3.5]nonan-2-ylmethyl)-4-(trifluoromethyl)pyrrolidin-1-yl]quinoxaline-5-carbonitrile] | 37
24 | N#Cc1ccc(N2CC(CN3CCC4(CCNC4)C3)C3(CC3)C2)c2cccnc12 (stereo not drawn) [Example 43, 5-[7-(2,7-Diazaspiro[4.4]nonan-2-ylmethyl)-5-azaspiro[2.4]heptan-5-yl]quinoline-8-carbonitrile] | 718
